Reference: patent publication US8940909B2, “Indicator platform” (Biosynth AG, priority 2009, dated 2015)

Experiments:
Type in all cases: cell-based
[1] = test system: Escherichia coli; assay: IN and IO staining of bacterial colonies under anaerobic conditions; details: for C: Color of colonies / D: Diffusion around colonies / G: Growth of colonies / I: Intensity of color / L: Localization on colonies / S: Size of colonies: Nutrient Agar plates, anaerobically incubated with E. coli
Experimental: Nutrient Agar plates containing 150 mg/l of various substrates and 100 mg/l IPTG were inoculated with Escherichia coli. Plates were put in an anaerobic jar (Anaerojar, Oxoid), an AnaeroGen sachet (Oxoid) was added, the jar was closed and incubated for 24 hours at 37° C.
IN staining cannot be used under anaerobic conditions.

[2] = test system: Aeromonas hydrophila 292; assay: IO staining of colonies of beta-D-galactosidase positive/negative bacteria (Table IVb); details: Aeromonas hydrophila strain 292, b-gal +; 24 h on Nutrient Agar, 150 mg/l indicator, 100 mg/l IPTG; for G: Growth of colonies: key: −: absent; +/−: weak; +: strong; ++: very strong
[3] = test system: Citrobacter freundii 181; assay: as above; details: Citrobacter freundii strain 181, b-gal +; 24 h on Nutrient Agar, 150 mg/l indicator, 100 mg/l IPTG; for C: Color of colonies: key: −: absent; +/−: weak; +: strong; ++: very strong; for G: Growth of colonies: key: −: absent; +/−: weak; +: strong; ++: very strong
[4] = test system: Enterobacter aerogenes 242; assay: as above; details: Enterobacter aerogenes strain 242, b-gal +; 24 h on Nutrient Agar, 150 mg/l indicator, 100 mg/l IPTG; for C: Color of colonies: key: −: absent; +/−: weak; +: strong; ++: very strong; for G: Growth of colonies: key: −: absent; +/−: weak; +: strong; ++: very strong
[5] = test system: Enterobacter cloacae 245; assay: as above; details: Enterobacter cloacae strain 245, b-gal +; 24 h on Nutrient Agar, 150 mg/l indicator, 100 mg/l IPTG; for C: Color of colonies: key: −: absent; +/−: weak; +: strong; ++: very strong; for G: Growth of colonies: key: −: absent; +/−: weak; +: strong; ++: very strong
[6] = test system: Escherichia coli (O157:H7) 60; assay: as above; details: Escherichia coli (O157:H7) strain 60, b-gal +; 24 h on Nutrient Agar, 150 mg/l indicator, 100 mg/l IPTG
[7] = test system: Escherichia coli 61; assay: as above; details: Escherichia coli strain 61, b-gal +; 24 h on Nutrient Agar, 150 mg/l indicator, 100 mg/l IPTG; for C: Color of colonies: key: −: absent; +/−: weak; +: strong; ++: very strong; for G: Growth of colonies: key: −: absent; +/−: weak; +: strong; ++: very strong
[8] = test system: Escherichia coli 270; assay: as above; details: Escherichia coli strain 270, b-gal +; 24 h on Nutrient Agar, 150 mg/l indicator, 100 mg/l IPTG; for C: Color of colonies: key: −: absent; +/−: weak; +: strong; ++: very strong; for G: Growth of colonies: key: −: absent; +/−: weak; +: strong; ++: very strong
[9] = test system: Klebsiella pneumoniae 164; assay: as above; details: Klebsiella pneumoniae strain 164, b-gal +; 24 h on Nutrient Agar, 150 mg/l indicator, 100 mg/l IPTG; for C: Color of colonies: key: −: absent; +/−: weak; +: strong; ++: very strong; for G: Growth of colonies: key: −: absent; +/−: weak; +: strong; ++: very strong
[10] = test system: Serratia marcescens 40; assay: as above; details: Serratia marcescens strain 40, b-gal +; 24 h on Nutrient Agar, 150 mg/l indicator, 100 mg/l IPTG; for G: Growth of colonies: key: −: absent; +/−: weak; +: strong; ++: very strong
[11] = test system: Staphylococcus intermedius 31; assay: as above; details: Staphylococcus intermedius strain 31, b-gal +; 24 h on Nutrient Agar, 150 mg/l indicator, 100 mg/l IPTG
[12] = test system: Staphylococcus saprophyticus 273; assay: as above; details: Staphylococcus saprophyticus strain 273, b-gal +; 24 h on Nutrient Agar, 150 mg/l indicator, 100 mg/l IPTG; for G: Growth of colonies: key: −: absent; +/−: weak; +: strong; ++: very strong
[13] = test system: Salmonella bongori 81; assay: as above; details: Salmonella bongori strain 81, b-gal +; 24 h on Nutrient Agar, 150 mg/l indicator, 100 mg/l IPTG; for C: Color of colonies: key: −: absent; +/−: weak/variable; +: strong; for G: Growth of colonies: key: −: absent; +/−: weak; +: strong; ++: very strong
[14] = test system: Salmonella illa 73; assay: as above; details: Salmonella illa strain 73, b-gal +; 24 h on Nutrient Agar, 150 mg/l indicator, 100 mg/l IPTG; note: key: −: absent; +/−: weak; +: strong; ++: very strong
[15] = test system: Shigella dysenteriae Serovar 1 131; assay: as above; details: Shigella dysenteriae Serovar 1 strain 131, b-gal +/−; 24 h on Nutrient Agar, 150 mg/l indicator, 100 mg/l IPTG
[16] = test system: Shigella sonnei 133; assay: as above; details: Shigella sonnei strain 133, b-gal +/−; 24 h on Nutrient Agar, 150 mg/l indicator, 100 mg/l IPTG; for C: Color of colonies: key: −: absent; +/−: weak; +: strong; ++: very strong; for G: Growth of colonies: key: −: absent; +/−: weak; +: strong; ++: very strong
[17] = test system: Yersinia enterocolitica 175; assay: as above; details: Yersinia enterocolitica strain 175, b-gal +/−; 24 h on Nutrient Agar, 150 mg/l indicator, 100 mg/l IPTG; for G: Growth of colonies: key: −: absent; +/−: weak; +: strong; ++: very strong
[18] = test system: Salmonella enteritidis 43; assay: as above; details: Salmonella enteritidis strain 43, b-gal −; 24 h on Nutrient Agar, 150 mg/l indicator, 100 mg/l IPTG; note: key: −: absent; +/−: weak; +: strong; ++: very strong
[19] = test system: Bacillus subtilis 65; assay: as above; details: Bacillus subtilis strain 65, b-gal −; 24 h on Nutrient Agar, 150 mg/l indicator, 100 mg/l IPTG; for C: Color of colonies: key: −: absent; +/−: weak; +: strong; ++: very strong; for F: Fluorescence of colonies: key: −: absent; +/−: weak; +: strong; ++: very strong
[20] = test system: Listeria monocytogenes (4b) 290; assay: as above; details: Listeria monocytogenes (4b) strain 290, b-gal −; 24 h on Nutrient Agar, 150 mg/l indicator, 100 mg/l IPTG; for C: Color of colonies: key: −: absent; +/−: weak; +: strong; ++: very strong; for F: Fluorescence of colonies: key: −: absent; +/−: weak; +: strong; ++: very strong
[21] = test system: Pseudomonas aeruginosa 168; assay: as above; details: Pseudomonas aeruginosa strain 168, b-gal −, 24 h on Nutrient Agar, 150 mg/l indicator, 100 mg/l IPTG; for F: Fluorescence of colonies: footnote 1: blue autofluorescence; for C: Color of colonies: key: −: absent; +/−: weak; +: strong; ++: very strong; for G: Growth of colonies: key: −: absent; +/−: weak; +: strong; ++: very strong
[22] = test system: Shigella boydii 135; assay: as above; details: Shigella boydii strain 135, b-gal −; 24 h on Nutrient Agar, 150 mg/l indicator, 100 mg/l IPTG; note: key: −: absent; +/−: weak; +: strong; ++: very strong
[23] = test system: Staphylococcus aureus 2; assay: as above; details: Staphylococcus aureus strain 2, b-gal −, 24 h on Nutrient Agar, 150 mg/l indicator, 100 mg/l IPTG; for C: Color of colonies: footnote 2: S. aureus natural color; for F: Fluorescence of colonies: key: −: absent; +/−: weak; +: strong; ++: very strong
[24] = test system: Streptococcus agalactiae 195; assay: as above; details: Streptococcus agalactiae strain 195, b-gal −; 24 h on Nutrient Agar, 150 mg/l indicator, 100 mg/l IPTG; for C: Color of colonies: key: −: absent; +/−: weak; +: strong; ++: very strong; for F: Fluorescence of colonies: key: −: absent; +/−: weak; +: strong; ++: very strong

## O=C(c1ccccc1)c1ccccc1-n1cc(O[C@@H]2O[C@H](CO)[C@H](O)[C@H](O)[C@H]2O)c2c(Cl)c(Br)ccc21 [Indicator I22a, 1-(2-Benzoylphenyl)-5-bromo-4-chloro-1H-indol-3-yl-beta-D-galactopyranoside]
[1]; E. coli, anaerobic, 24 hours at 37° C.
  Localization of stain under anaerobic conditions: perfect localization
[1]
  C: Color of colonies: o-r
  D: Diffusion around colonies: −
  G: Growth of colonies: +
  I: Intensity of color: +
  L: Localization on colonies: ++
  S: Size of colonies: 0.5 mm
[2]
  C: Color of colonies: +/−
  F: Fluorescence of colonies: +/−
  G: Growth of colonies: +
[3]
  C: Color of colonies: +
  F: Fluorescence of colonies: +/−
  G: Growth of colonies: +
[4]
  C: Color of colonies: +
  F: Fluorescence of colonies: +/−
  G: Growth of colonies: +
[5]
  C: Color of colonies: +
  F: Fluorescence of colonies: +/−
  G: Growth of colonies: +
[6]
  C: Color of colonies: +
  F: Fluorescence of colonies: +/−
  G: Growth of colonies: +
[7]
  C: Color of colonies: +
  F: Fluorescence of colonies: +/−
  G: Growth of colonies: +
[8]
  C: Color of colonies: +
  F: Fluorescence of colonies: +/−
  G: Growth of colonies: +
[9]
  C: Color of colonies: +
  F: Fluorescence of colonies: +/−
  G: Growth of colonies: +
[10]
  C: Color of colonies: +
  F: Fluorescence of colonies: +/−
  G: Growth of colonies: +
[11]
  C: Color of colonies: −
  F: Fluorescence of colonies: −
  G: Growth of colonies: −
[12]
  C: Color of colonies: −
  F: Fluorescence of colonies: −
  G: Growth of colonies: −
[13]
  C: Color of colonies: +/−
  F: Fluorescence of colonies: −
  G: Growth of colonies: +
[14]
  C: Color of colonies: −
  F: Fluorescence of colonies: −
  G: Growth of colonies: +
[15]
  C: Color of colonies: −
  F: Fluorescence of colonies: −
  G: Growth of colonies: +
[16]
  C: Color of colonies: +
  F: Fluorescence of colonies: +/−
  G: Growth of colonies: +
[17]
  C: Color of colonies: −
  F: Fluorescence of colonies: −
  G: Growth of colonies: +
[18]
  C: Color of colonies: −
  F: Fluorescence of colonies: −
  G: Growth of colonies: +
[19]
  C: Color of colonies: −
  F: Fluorescence of colonies: −
  G: Growth of colonies: −
[20]
  C: Color of colonies: −
  F: Fluorescence of colonies: −
  G: Growth of colonies: −
[21]
  C: Color of colonies: −
  G: Growth of colonies: +
  F: Fluorescence of colonies: +^1
[22]
  C: Color of colonies: −
  F: Fluorescence of colonies: −
  G: Growth of colonies: +
[23]
  F: Fluorescence of colonies: −
  G: Growth of colonies: −
  C: Color of colonies: −
[24]
  C: Color of colonies: −
  F: Fluorescence of colonies: −
  G: Growth of colonies: −

## COc1ccc(C(=O)c2ccccc2-n2cc(O[C@@H]3O[C@H](CO)[C@H](O)[C@H](O)[C@H]3O)c3ccc(Cl)cc32)c(OC)c1 [Indicator I27a, 6-Chloro-1-[2-(2,4-dimethoxybenzoyl)phenyl]-1H-indol-3-yl-beta-D-galactopyranoside]
[1]
  C: Color of colonies: y-o
  D: Diffusion around colonies: +/−
  G: Growth of colonies: +
  I: Intensity of color: +
  L: Localization on colonies: +
  S: Size of colonies: 1 mm
[2]
  C: Color of colonies: +
  F: Fluorescence of colonies: +
  G: Growth of colonies: +
[3]
  C: Color of colonies: +
  F: Fluorescence of colonies: +
  G: Growth of colonies: +
[4]
  C: Color of colonies: +
  F: Fluorescence of colonies: +
  G: Growth of colonies: +
[5]
  C: Color of colonies: ++
  F: Fluorescence of colonies: ++
  G: Growth of colonies: +
[6]
  C: Color of colonies: ++
  F: Fluorescence of colonies: ++
  G: Growth of colonies: +
[7]
  C: Color of colonies: ++
  F: Fluorescence of colonies: ++
  G: Growth of colonies: +
[8]
  C: Color of colonies: ++
  F: Fluorescence of colonies: ++
  G: Growth of colonies: +
[9]
  C: Color of colonies: +
  F: Fluorescence of colonies: +
  G: Growth of colonies: +
[10]
  C: Color of colonies: +
  F: Fluorescence of colonies: +
  G: Growth of colonies: +
[11]
  C: Color of colonies: −
  F: Fluorescence of colonies: −
  G: Growth of colonies: +/−
[12]
  C: Color of colonies: +/−
  F: Fluorescence of colonies: +/−
  G: Growth of colonies: +
[13]
  C: Color of colonies: +/−
  F: Fluorescence of colonies: +/−
  G: Growth of colonies: +
[14]
  C: Color of colonies: −
  F: Fluorescence of colonies: −
  G: Growth of colonies: +
[15]
  C: Color of colonies: −
  F: Fluorescence of colonies: −
  G: Growth of colonies: +
[16]
  C: Color of colonies: +
  F: Fluorescence of colonies: ++
  G: Growth of colonies: +
[17]
  C: Color of colonies: +/−
  F: Fluorescence of colonies: −
  G: Growth of colonies: +
[18]
  C: Color of colonies: −
  F: Fluorescence of colonies: −
  G: Growth of colonies: +
[19]
  C: Color of colonies: −
  F: Fluorescence of colonies: −
  G: Growth of colonies: +
[20]
  C: Color of colonies: −
  F: Fluorescence of colonies: −
  G: Growth of colonies: +/−
[21]
  C: Color of colonies: −
  G: Growth of colonies: +
  F: Fluorescence of colonies: +^1
[22]
  C: Color of colonies: −
  F: Fluorescence of colonies: −
  G: Growth of colonies: +
[23]
  F: Fluorescence of colonies: −
  G: Growth of colonies: +/−
  C: Color of colonies: −
[24]
  C: Color of colonies: −
  F: Fluorescence of colonies: −
  G: Growth of colonies: +/−
